The target in assay [1] is T1, Adenosine receptor A2b (Homo sapiens) (UniProt P29275).
T1 sequence (whole entry): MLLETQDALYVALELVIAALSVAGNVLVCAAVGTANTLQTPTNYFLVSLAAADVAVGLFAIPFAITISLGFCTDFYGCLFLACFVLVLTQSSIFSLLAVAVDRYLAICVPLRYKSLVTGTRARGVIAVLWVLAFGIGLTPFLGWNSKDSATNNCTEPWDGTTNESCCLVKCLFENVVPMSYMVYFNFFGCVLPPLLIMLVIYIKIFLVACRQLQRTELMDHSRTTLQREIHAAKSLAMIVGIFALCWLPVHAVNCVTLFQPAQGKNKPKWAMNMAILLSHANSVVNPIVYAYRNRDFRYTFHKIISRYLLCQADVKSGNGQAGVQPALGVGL
Nature of the assay: Displacement of [3H]PSB-603 from human A2B receptor expressed in CHO cell membranes at 1 uM measured after 3 hrs by radioligand binding assay relative to control. The conditions noted are these: Membrane. A general note: In a radioligand displacement assay an active substance lowers the binding of a labelled ligand.

Assay [2] addresses T2, Adenosine receptor A1 (Homo sapiens) (UniProt P30542).
T2 sequence (whole entry): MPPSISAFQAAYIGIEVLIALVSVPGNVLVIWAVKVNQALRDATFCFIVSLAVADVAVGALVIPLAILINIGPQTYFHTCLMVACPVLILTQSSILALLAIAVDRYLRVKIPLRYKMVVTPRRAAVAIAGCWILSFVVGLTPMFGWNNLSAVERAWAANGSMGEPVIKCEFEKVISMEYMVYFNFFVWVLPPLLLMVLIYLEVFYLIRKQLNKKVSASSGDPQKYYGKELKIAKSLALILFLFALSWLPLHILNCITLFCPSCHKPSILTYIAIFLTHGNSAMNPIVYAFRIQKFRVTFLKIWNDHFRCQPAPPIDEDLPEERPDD
The assay can be described thus: Displacement of [3H]DPCPX from human A1 receptor expressed in CHO cell membranes at 10 uM measured after 3 hrs by radioligand binding assay relative to control. Conditions: Membrane.

Assay [3] has as its target T3, Adenosine receptor A2a (Homo sapiens, UniProt P29274). The assay can be described thus: Displacement of [3H]ZM241385 from human A2A receptor expressed in HEK293 cell membranes at 10 uM measured after 3 hrs by radioligand binding assay relative to control. Conditions: Membrane.
For assay [4], the target named is T4, Adenosine receptor A3 (Homo sapiens) (UniProt P0DMS8).
T4 sequence (whole entry): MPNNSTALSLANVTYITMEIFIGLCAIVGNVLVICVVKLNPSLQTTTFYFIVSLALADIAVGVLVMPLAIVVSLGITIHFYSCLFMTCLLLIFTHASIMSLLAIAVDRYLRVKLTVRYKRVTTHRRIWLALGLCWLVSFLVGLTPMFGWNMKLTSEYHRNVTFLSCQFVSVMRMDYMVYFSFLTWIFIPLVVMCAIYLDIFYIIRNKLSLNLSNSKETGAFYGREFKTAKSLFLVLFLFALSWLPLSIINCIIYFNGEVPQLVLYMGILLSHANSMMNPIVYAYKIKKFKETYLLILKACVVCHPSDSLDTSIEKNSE
Nature of the assay: Displacement of [3H]PSB-11 from human A3 receptor expressed in CHO cell membranes at 10 uM measured after 3 hrs by radioligand binding assay relative to control. The conditions noted are these: Membrane.

In assay [5] the target is T3, Adenosine receptor A2a.
Another assay has as its target T5, Adenosine receptor A1 (Homo sapiens, UniProt P30542).
T5 sequence (P30542 whole entry): T2 sequence (whole entry)

For assay [6], the target named is T3, Adenosine receptor A2a. This is another data set of the same source.
Description: Displacement of [3H]ZM241385 from human A2A receptor expressed in HEK293 cell membranes measured after 3 hrs by radioligand binding assay
The target in the next assay is T6, Adenosine receptor A2b (Homo sapiens, UniProt P29275).
T6 sequence (P29275 whole entry): T1 sequence (whole entry)

In another assay the target is T7, Adenosine receptor A3 (Homo sapiens, UniProt P0DMS8).
T7 sequence (P0DMS8 whole entry): T4 sequence (whole entry)

The values that follow come from ChEMBL document CHEMBL5038576 (J Med Chem, 2021).

For orientation: EC50 means the concentration at which the effect is half-maximal. What is called Ki is a measure of affinity in units of concentration, obtained from inhibition or displacement. High values mean lower affinity, low ones higher affinity.

Each structure is given as a SMILES string.

T3 sequence (P29274 whole entry): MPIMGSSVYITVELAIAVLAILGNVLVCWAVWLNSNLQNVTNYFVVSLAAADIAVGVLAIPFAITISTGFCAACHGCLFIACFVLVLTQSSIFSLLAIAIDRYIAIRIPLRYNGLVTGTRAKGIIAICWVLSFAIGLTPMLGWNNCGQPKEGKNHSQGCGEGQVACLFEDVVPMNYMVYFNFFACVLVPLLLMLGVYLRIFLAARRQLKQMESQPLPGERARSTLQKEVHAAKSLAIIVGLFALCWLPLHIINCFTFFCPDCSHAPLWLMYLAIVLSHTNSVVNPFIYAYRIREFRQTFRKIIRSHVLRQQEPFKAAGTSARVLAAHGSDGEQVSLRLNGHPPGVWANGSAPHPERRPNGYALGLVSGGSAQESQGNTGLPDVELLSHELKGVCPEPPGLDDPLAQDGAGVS

As to `Nc1cc(-c2ccccc2)cc(SCc2ncc[nH]2)n1`, the Activity in assay [1] was -12%; in assay [2], 12%; at Adenosine receptor A2a [3] it was -17%; in [4], 46%.
`N#Cc1c(SCc2ncc[nH]2)nc(N)nc1-c1ccccc1` showed an EC50 at Adenosine receptor A2a [5] of 44.7 nM. Also, the values for the Ki at Adenosine receptor A1 and at Adenosine receptor A2a [6] were 69.2 nM and 10 nM, respectively. Moreover, in assay [1] (filed as partial agonist), the Activity stood at 50%.
At Adenosine receptor A1, `N#Cc1c(-c2ccccc2)cc(N)nc1SCc1ncc[nH]1` had a Ki of 112 nM. Besides, in [1], the Activity worked out at 37%.
Turning to `N#Cc1c(-c2ccccc2)cc(SCc2ncc[nH]2)nc1N`, the Ki on Adenosine receptor A1 was 417 nM; on Adenosine receptor A2b, 372 nM.
On Adenosine receptor A2a [5], `Nc1nc(SCc2ncc[nH]2)nc(-c2ccccc2)n1` showed an EC50 of 813 nM. Moreover, the Ki on Adenosine receptor A1 was 288 nM; on Adenosine receptor A2a [6], 562 nM. For the same molecule, in assay [1], the Activity was 2%.
`N#Cc1c(N)nc(SCc2ncc[nH]2)nc1-c1ccccc1`: the Ki at Adenosine receptor A1 is 85.1 nM; at Adenosine receptor A3 it was 347 nM. Besides, the Activity in assay [1] (filed as partial agonist) amounted to 51%.
